From PMC11374660, “The novel family of Warbicin® compounds inhibits glucose uptake both in yeast and human cells and restrains cancer cell proliferation” (Frontiers in Oncology, 2024)

Target: T1, yeast Hxt7 (Saccharomyces cerevisiae, UniProt P39004)
T1 construct: expressed in transfected cells; host or cells: S. cerevisiae RE700A hxt0 gal2Δ (A7) or EBY.VW4000 hxt0 erg4Δ (A9) transformed with pHXT7
Experiment: Glucose uptake by Hxt7 expressed in yeast RE700A hxt^0 gal2Δ
Assay type: cell-based, S. cerevisiae
Details: 25 µM, hxt^0 gal2Δ strain
Method: Cells of S. cerevisiae were either grown in minimal or rich medium. For minimal medium, cells were grown in Complete Synthetic medium (MP biomedicals) containing 0.5% (w/v) ammonium sulphate (Sigma-Aldrich), 0.17% (w/v) yeast nitrogen base without amino acids and without ammonium sulphate, supplemented with 100 mg/L adenine. In the case of auxotrophic selection, the appropriate composition of essential amino acids (MP Biomedicals) was chosen. For liquid medium, pH was adjusted to 5.5 and for solid medium (2% agar) to 6.5 with KOH. For rich medium, cells were grown on YP medium (1% w/v yeast extract, 2% w/v bacteriological peptone), supplemented with 100 mg/L adenine. Cells of the EBY.VW4000 hxt^0 strain expressing a single HXT carrier or GLUT isoform were (pre)grown in YP medium with 58 mM maltose (which is taken up by its own dedicated maltose transporter). S. cerevisiae cells were always grown at 30°C. Liquid cultures were shaken at 200 rpm.
Zero-trans uptake of radioactively labeled [U-^14C]glucose, [U-^14C]fructose or [U-^14C]galactose by S. cerevisiae cells was determined in accordance with previous studies ([45], [75]). Cells were grown on different carbon sources depending on the experiment. […] The loaded filter was transferred to a scintillation vial containing 3 mL liquid scintillation cocktail (Ultima-Flo M, Perkin Elmer) and counted using the Hidex 300 SL. […]

T1 sequence (P39004 whole entry): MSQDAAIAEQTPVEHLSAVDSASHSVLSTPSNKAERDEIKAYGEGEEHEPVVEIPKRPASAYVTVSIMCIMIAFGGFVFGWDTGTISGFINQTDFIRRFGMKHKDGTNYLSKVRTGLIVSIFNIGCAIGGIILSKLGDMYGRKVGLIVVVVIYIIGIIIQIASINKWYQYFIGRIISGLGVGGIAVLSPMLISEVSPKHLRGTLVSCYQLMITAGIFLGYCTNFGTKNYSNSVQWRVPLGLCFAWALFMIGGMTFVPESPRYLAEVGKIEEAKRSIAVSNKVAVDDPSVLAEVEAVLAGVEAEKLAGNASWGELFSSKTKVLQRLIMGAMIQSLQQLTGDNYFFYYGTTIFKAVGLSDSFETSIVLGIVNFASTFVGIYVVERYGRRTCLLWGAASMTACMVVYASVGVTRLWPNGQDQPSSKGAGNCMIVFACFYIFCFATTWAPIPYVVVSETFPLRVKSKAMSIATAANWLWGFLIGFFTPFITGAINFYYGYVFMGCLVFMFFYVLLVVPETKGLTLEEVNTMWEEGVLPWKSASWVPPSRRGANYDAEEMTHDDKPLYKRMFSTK

For `Cc1nc(Sc2nnc3n2CCCCC3)c2c(-c3cccs3)csc2n1` [WBC-A], the “inhibition of 2.5 mM glucose uptake by Hxt7” value was “inhibited glucose uptake both by Hxt7 and GLUT1^V69M”.
